Test system: viral neuraminidase
Format: biochemical, influenza
Conditions: pH 5.5

| Compound | whether the substrate was cleaved and odorant released (decrease of the substrate signal and appearance of the cleavage products signal) |
| --- | --- |
| CC(=O)NC1C(O)CC(OCC2(C)CC2CC2CC3CC3(C)C2(C)C)(C(=O)O)OC1CC(O)CO [javanol, Sodium ([(1R,2S)-1-methyl-2-[[(1R,3S,5S)-1,2,2-trimethyl-3-bicyclo[3.1.0]hexanyl]methyl]cyclopropyl]methyl-5-acetamido-3,5-dideoxy-α-D-glycero-D-galacto-2-nonulopyranoside)onate] | substrate is still present |
| Sodium (4-(4-hydroxy-3-methoxyphenyl)butan-2-one-5-acetamido-3,5-dideoxy-α-D-glycero-D-galacto-2-nonulopyranoside)onate [zingerone] | significant loss of peak |
